Test results reported in PMC7044277 (Nature Communications, 2020).
Values joined by “and” are separate entries in the source; they are usually repeats but may differ in a detail not shown here. Equal entries are not always repeated.

Key:
[1] = target: T1, DRD4 (D4.4 variant) wild-type (Homo sapiens, UniProt P21917); assay: Radioligand competition binding, [3H]-N-methylspiperone
T1 sequence (P21917 1-419): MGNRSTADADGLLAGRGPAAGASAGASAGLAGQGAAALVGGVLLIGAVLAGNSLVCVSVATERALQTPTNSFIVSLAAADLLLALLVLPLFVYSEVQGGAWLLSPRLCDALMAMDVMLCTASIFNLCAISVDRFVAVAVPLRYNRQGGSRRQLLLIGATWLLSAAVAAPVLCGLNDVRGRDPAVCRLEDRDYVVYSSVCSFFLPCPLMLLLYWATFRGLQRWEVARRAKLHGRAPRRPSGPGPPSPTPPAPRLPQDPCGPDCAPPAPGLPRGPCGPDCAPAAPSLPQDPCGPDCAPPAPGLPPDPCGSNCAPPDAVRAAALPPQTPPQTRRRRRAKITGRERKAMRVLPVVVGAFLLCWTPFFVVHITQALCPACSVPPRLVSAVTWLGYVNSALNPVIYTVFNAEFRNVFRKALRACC

DRD4 (D4.4 variant) [2] = target: T2, DRD4 (D4.4 variant) (Homo sapiens, UniProt P21917); assay: Gαi/o-mediated cAMP inhibition (GloSensor); format: cell-based; details: DRD4; agonist, cAMP inhibition; read-out: EC50 ± SEM
T2 sequence (P21917 1-419): T1 sequence (P21917 1-419)

DRD3 = DRD3 (Homo sapiens, UniProt P35462); assay: β-arrestin2 recruitment (Tango); format: cell-based; details: DRD3, Tango
DRD3 wild-type = DRD3 wild-type (Homo sapiens, UniProt P35462); assay: Radioligand competition binding, [3H]-N-methylspiperone
DRD4 (D4.4 variant) [3] = target: T2, DRD4 (D4.4 variant); assay: β-arrestin2 recruitment (Tango); format: cell-based; details: DRD4; Tango; read-out: EC50 ± SEM
[4] = target: DRD2 (D2 long receptor) wild-type (Homo sapiens, UniProt P14416); assay: Radioligand competition binding, [3H]-N-methylspiperone, HEK293T membranes; details: DRD2; [3H]-methylspiperone (0.8-1.0 nM); read-out: Ki
DRD2 (D2 long receptor) [5] = target: T3, DRD2 (D2 long receptor) (Homo sapiens, UniProt P14416); assay: β-arrestin2 recruitment (Tango), HTLA cells; format: cell-based; details: for Response, Fig_S11c dose-response: individual replicates
DRD2 F1103.28A = DRD2 F1103.28A (Homo sapiens, UniProt P14416, F110A); format: binding; design: expressed in transfected cells; host or cells: HEK293T (ATCC CRL-11268); details: DRD2 F1103.28A; read-out: Ki
DRD2 (D2 long receptor) [6] = target: T3, DRD2 (D2 long receptor); assay: Gαi/o-mediated cAMP inhibition (GloSensor split-luciferase cAMP reporter), HEK293T; format: cell-based; details: for Response, Fig_S11b dose-response: individual replicates;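 on all read-outs here: compounds applied 15 min at room temperature, then luciferin plus 400 nM isoproterenol to raise cAMP through endogenous β2-adrenergic receptors, luminescence read 15 min later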

T3 sequence (P14416 whole entry): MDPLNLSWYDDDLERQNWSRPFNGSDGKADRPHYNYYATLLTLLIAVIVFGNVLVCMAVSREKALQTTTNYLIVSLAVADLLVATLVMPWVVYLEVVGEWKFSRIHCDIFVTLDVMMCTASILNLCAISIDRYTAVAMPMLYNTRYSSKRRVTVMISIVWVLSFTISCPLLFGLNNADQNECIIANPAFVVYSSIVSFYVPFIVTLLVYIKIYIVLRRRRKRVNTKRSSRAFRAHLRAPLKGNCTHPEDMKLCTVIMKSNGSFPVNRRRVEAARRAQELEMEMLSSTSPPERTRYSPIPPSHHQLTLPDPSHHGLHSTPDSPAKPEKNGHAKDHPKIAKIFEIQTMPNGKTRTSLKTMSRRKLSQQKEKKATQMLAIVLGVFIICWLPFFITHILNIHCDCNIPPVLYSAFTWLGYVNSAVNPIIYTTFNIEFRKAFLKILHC
Chain of DRD3 (P35462 whole entry): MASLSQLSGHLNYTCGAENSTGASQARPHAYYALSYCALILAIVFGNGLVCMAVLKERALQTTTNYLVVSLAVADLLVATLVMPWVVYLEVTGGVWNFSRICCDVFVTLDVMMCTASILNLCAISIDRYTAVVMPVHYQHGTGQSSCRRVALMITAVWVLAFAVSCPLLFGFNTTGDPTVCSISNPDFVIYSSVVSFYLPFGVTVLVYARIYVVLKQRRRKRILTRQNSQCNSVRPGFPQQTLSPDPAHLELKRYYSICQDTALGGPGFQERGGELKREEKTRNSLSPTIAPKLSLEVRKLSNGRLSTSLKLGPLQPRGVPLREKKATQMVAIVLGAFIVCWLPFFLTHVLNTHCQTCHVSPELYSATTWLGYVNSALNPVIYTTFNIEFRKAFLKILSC
Chain of DRD3 wild-type (P35462 whole entry): as above
Chain of DRD2 F1103.28A (P14416 whole entry F110A): as the sequence (P14416 whole entry) above, with F110A counted along it
Chain of DRD2 (D2 long receptor) wild-type (P14416 whole entry): as the sequence (P14416 whole entry) above

- Ki ([1]; DRD4, [3H]-methylspiperone (0.8-1.0 nM), read-out: Ki): 5890 nM
- pKi ± SEM ([1]; DRD4 wild-type): 5.23±0.05
- EC50 (DRD4 (D4.4 variant) [2]): > 10000 nM
- Emax relative to quinpirole response (DRD3): 32.40%
- EC50 (DRD3; read-out: EC50 ± SEM): 2530 ± 290 nM
- Ki (DRD3 wild-type; DRD3, [3H]-methylspiperone (0.8-1.0 nM), read-out: Ki): 760 nM
- pKi ± SEM (DRD3 wild-type; DRD3 wild-type): 6.12±0.17
- EC50 (DRD4 (D4.4 variant) [3]): > 10000 nM
- Ki [4]: > 10000 nM
- Emax relative to quinpirole response (DRD2 (D2 long receptor) [5]; DRD2, Tango): 70.08%
- EC50 (DRD2 (D2 long receptor) [5]; DRD2, β-arrestin2 recruitment (Tango), read-out: EC50 ± SEM): 797 ± 57.7 nM
- Response, Fig_S11c dose-response (DRD2 (D2 long receptor) [5]; Log[Drug] -6.52): 30.014
- Ki (DRD2 F1103.28A): > 10000 nM
- EC50 (DRD2 (D2 long receptor) [6]; DRD2, agonist, Gαi/o-mediated cAMP inhibition, read-out: EC50 ± SEM): 33.1 ± 18.8 nM
- Emax relative to quinpirole response (DRD2 (D2 long receptor) [6]; DRD2, cAMP inhibition): 91.90%
- Response, Fig_S11b dose-response (DRD2 (D2 long receptor) [6]; Log[Drug] -11): 20.5404 and 9.648 and 18.1596 and 0.62
Structure (SMILES): CC(NCC1(O)CCCCC1)c1cc2ccccc2o1.Cl (stereo not drawn) [O1LE6]
- response, Fig_S11c dose-response source data (DRD2 (D2 long receptor) [5]; Fig_S11c, Log[Drug] -5, replicate values): 73.3598 and 82.2115 and 60.0642 and 63.6209 and 63.3142 and 65.0045 and 51.1507 and 58.9513 and 48.4491
- Response, Fig_S11c dose-response (DRD2 (D2 long receptor) [5]; Log[Drug] -7): 10.4893 and 10.462 and 11.7147 and 9.282 and 6.266 and 8.074 and 10.4045 and 10.5346 and 7.978
- Response, Fig_S11c dose-response (DRD2 (D2 long receptor) [5]; Log[Drug] -7.52): 6.009 and 6.371 and 5.905 and 4.934 and 4.227 and 4.993 and 4.682 and 6.374 and 4.32
- Response, Fig_S11c dose-response (DRD2 (D2 long receptor) [5]; Log[Drug] -8): 4.1038 and 4.071 and 3.602 and 3.942 and 4.272 and 4.026 and 4.857 and 4.849 and 4.688
- Response, Fig_S11c dose-response (DRD2 (D2 long receptor) [5]; Log[Drug] -8.52): 3.803 and 4.0098 and 4.032 and 4.312 and 4.259 and 4.357 and 4.07 and 4.763 and 3.775
- Response, Fig_S11c dose-response (DRD2 (D2 long receptor) [5]; Log[Drug] -9): 4.244 and 4.685 and 3.406 and 3.869 and 4.425 and 4.183 and 3.883 and 3.8713 and 3.512
- Response, Fig_S11c dose-response (DRD2 (D2 long receptor) [5]; Log[Drug] -9.52): 4.538 and 3.818 and 3.898 and 3.793 and 4.174 and 4.462 and 3.884 and 3.705 and 3.5
- Response, Fig_S11c dose-response (DRD2 (D2 long receptor) [5]; Log[Drug] -10): 3.12 and 5.224 and 4.08 and 4.167 and 4.261 and 4.387 and 3.865 and 3.579 and 4.318
- Response, Fig_S11c dose-response (DRD2 (D2 long receptor) [5]; Log[Drug] -10.52): 3.591 (2×) and 4.048 and 3.394 and 3.852 and 3.958 and 3.858 and 3.561 and 3.474
- Response, Fig_S11c dose-response (DRD2 (D2 long receptor) [5]; Log[Drug] -11): 5.996 and 3.267 and 3.43 and 3.872 and 3.92 and 4.064 and 4.092 and 3.609 and 4.397
- Response, Fig_S11c dose-response (DRD2 (D2 long receptor) [5]; Log[Drug] -11.52): 4.744 and 4.248 and 3.765 and 3.919 and 3.901 and 3.85 and 3.587 and 4.237 and 3.779
- Response, Fig_S11c dose-response (DRD2 (D2 long receptor) [5]; Log[Drug] -12): 4.068 (2×) and 3.901 and 3.393 and 4.0327 and 3.921 and 3.9 and 3.99 and 3.547
- Response, Fig_S11b dose-response (DRD2 (D2 long receptor) [6]; Log[Drug] -5): 89.3204 and 91.1814 and 93.3649 and 89.4471 and 88.0921 and 76.1419 and 96.2317 and 89.795 and 84.5788
- Response, Fig_S11b dose-response (DRD2 (D2 long receptor) [6]; Log[Drug] -5.52): 91.5039 and 91.6528 and 82.6955 and 86.6619 and 92.27 and 73.2437 and 89.2098 and 91.9183 and 89.3603
- Response, Fig_S11b dose-response (DRD2 (D2 long receptor) [6]; Log[Drug] -6): 93.6874 and 86.8392 and 81.0827 and 85.4951 and 84.0648 and 76.6312 and 94.0081 and 90.9486 and 79.3124
- Response, Fig_S11b dose-response (DRD2 (D2 long receptor) [6]; Log[Drug] -6.52): 82.5466 and 82.8444 and 76.7653 and 79.6611 and 79.6234 and 70.5902 and 84.9299 and 83.4419 and 82.6896
- Response, Fig_S11b dose-response (DRD2 (D2 long receptor) [6]; Log[Drug] -7): 69.4705 and 74.0856 and 77.7579 and 57.4355 and 50.0583 and 54.3867 and 80.2821 and 76.3198 and 67.1078
- Response, Fig_S11b dose-response (DRD2 (D2 long receptor) [6]; Log[Drug] -7.52): 64.6321 and 55.65 and 60.3147 and 22.695 and 37.7317 and 15.9389 and 61.2396 and 56.2574 and 56.2742
- Response, Fig_S11b dose-response (DRD2 (D2 long receptor) [6]; Log[Drug] -8): 44.0874 and 48.1814 and 41.755 and 12.175 and 7.433 and 11.554 and 48.1991 and 55.9732 and 50.8406
- Response, Fig_S11b dose-response (DRD2 (D2 long receptor) [6]; Log[Drug] -8.52): 32.3511 and 30.5646 and 24.436 and 24.7087 and -0.0952 and 5.9082 and 29.5745 and 42.6986 and 35.9443
- Response, Fig_S11b dose-response (DRD2 (D2 long receptor) [6]; Log[Drug] -9): 34.212 and 32.0286 and 29.2744 and 20.4555 and 1.072 and 15.4496 and 33.7709 and 34.4062 and 30.9956
- Response, Fig_S11b dose-response (DRD2 (D2 long receptor) [6]; Log[Drug] -11.52): 13.5185 and 18.481 and 17.1411 and 15.3743 and -1.1867 and 2.859
- Response, Fig_S11b dose-response (DRD2 (D2 long receptor) [6]; Log[Drug] -12): -3.8502 and -19.5316 and -15.1399 and -4.9694 and 6.341 and -2.4664 and 2.0891 and 0.1832 and -19.7287
